Assays:
[1] = Metabolic stability in vitro in human hepatocytes; format: in vitro ADME; conditions: read-out: Intrinsic clearance
Experimental: The concentration of each compound in the reaction system was measured by LC/MS/MS to calculate the intrinsic clearance of the compounds to be tested, and evaluate the metabolic stability in vitro in human hepatocytes.
To the incubation plate, 198 μL of 0.5×10^6 cells/mL human hepatocyte mixture and 2.0 μL of 100 μM compound to be tested or positive control were added to initiate reaction. Incubation was performed at 900 rpm at 37° C. […] Then the mixture was vortex-mixed for 5 min. […] Then 100 μL of supernatant of each compound was transferred to a 96-well sample plate, and 100 μL of purified water was added to dilute the sample.
The resulting samples were quantified by ion chromatograms. The residual rate was calculated from peak areas of the compounds to be tested or the positive control. The slope k was determined using Microsoft Excel by linear regression of natural logarithm of the residual rate to the incubation time. The intrinsic clearance (in vitro CLint, μL/min/10^6 cells) was calculated from the slope value according to the following equation: […]

[2] = In vivo pharmacokinetics in SD rats; conditions: male, rat, plasma
Experimental: Using SD rats as test animals, drug concentrations in plasma of the rats at different times after intravenous injection and intragastric administration of the compounds provided in the present application were determined by LC/MS/MS. In vivo pharmacokinetic behaviors of the compounds provided in the present application in rats were investigated to evaluate pharmacokinetic characteristics of the compounds.
There were three healthy 6-8-week-old male SD rats in each group.
Intravenous administration: A certain amount of drug was weighed, and then 10 vol % N,N-dimethylacetamide, 33 vol % triethylene glycol, and 57 vol % physiological saline were added to prepare 1 mg/mL colorless clear and transparent liquid;
Intragastric administration: A certain amount of drug was weighed, and then 0.5 wt % hydroxypropyl methylcellulose, 0.1 vol % tween 80, and 99.6 vol % physiological saline were added to prepare 1 mg/mL white suspension.
After fasting overnight, the SD rats were dosed intravenously or intragastrically.
The compounds provided in the present application were administered intravenously to the rats, then 0.2 mL of blood was collected from jugular veins respectively at 0.083, 0.25, 0.5, 1, 2, 4, 8, and 24 h after the administration, and placed in a test tube containing EDTA-K2. The test tube was then centrifuged at 4000 rpm at 4° C. for 5 min to separate plasma, and the plasma was stored at −75° C. Alternatively, the compounds provided in the present application were administered intragastrically to the rats, then 0.2 mL of blood was collected from jugular veins respectively at 0.25, 0.5, 1, 2, 4, 8, and 24 h after the administration, and placed in a test tube containing EDTA-K2. The test tube was then centrifuged at 3500 rpm at 4° C. for 10 min to separate plasma, and the plasma was stored at −75° C.
The content of the compounds to be tested in rat plasma after intravenous administration or intragastric administration at different concentrations was determined: 30 μL of rat plasma at each time after administration was taken, 200 μL (50 ng/mL) of solution of internal standard dexamethasone in acetonitrile was added, then the resulting mixture was vortex-mixed for 30 s, and centrifuged at 4700 rpm at 4° C. for 15 min, the supernatant of plasma samples was diluted three times with water, and 2.0 μL of diluted solution was taken for LC-MS/MS.

PXR = PXR (Homo sapiens (Human), UniProt O75469); test: Potential for PXR activation in DPX2 cells; format: cell-based; conditions: 30 μM, versus 20 μM rifampicin
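Wherever GI50 is given: MDA-MB-436 proliferation over 7 days with compound, viability read as ATP luminescence (CellTiter-Glo), inhibition relative to DMSO-only wells, day 0 signal as background, GI50 from four-parameter fit.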

PXR, sequence (O75469 whole entry): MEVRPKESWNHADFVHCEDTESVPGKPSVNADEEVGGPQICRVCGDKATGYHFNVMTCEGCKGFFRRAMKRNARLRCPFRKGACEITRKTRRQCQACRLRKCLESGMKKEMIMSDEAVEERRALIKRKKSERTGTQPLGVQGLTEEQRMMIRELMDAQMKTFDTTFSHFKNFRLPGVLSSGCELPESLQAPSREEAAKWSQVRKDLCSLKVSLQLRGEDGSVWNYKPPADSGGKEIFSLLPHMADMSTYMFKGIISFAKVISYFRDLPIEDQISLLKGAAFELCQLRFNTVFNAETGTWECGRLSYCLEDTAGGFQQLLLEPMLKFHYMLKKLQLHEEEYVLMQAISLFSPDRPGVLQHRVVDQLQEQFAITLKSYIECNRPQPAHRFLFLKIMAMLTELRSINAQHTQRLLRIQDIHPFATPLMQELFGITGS

hepatocyte CLint at 1 μM [1]: < 1 µL/min/1e6 cells | Vd ([2]; IV 1 mg/kg, read-out: Apparent volume of distribution Vss_obs): 3.2 L/kg | clearance ([2]; IV 1 mg/kg, read-out: Clearance CL_obs): 16.5 mL/min/kg | half-life ([2]; IV 1 mg/kg, read-out: Half-life period T1/2 (converted)): 192 min | bioavailability ([2]; PO 5 mg/kg versus IV, read-out: Bioavailability F): 96.3% | Cmax ([2]; PO 5 mg/kg, read-out: Maximum plasma concentration Cmax): 1010 ng/mL | PXR activation (% Positive control) (PXR): 14.0 % Positive control | GI50 (MDA-MB-436 cells): 32.8 nM
SMILES: COc1ncnc(C2CC2)c1-c1ncc2c(n1)N(Cc1ccc(-c3nc(C(F)(F)F)cn3C)cc1)CC(=O)N2C [Compound 11, 2-(4-cyclopropyl-6-methoxypyrimidin-5-yl)-5-methyl-8-(4-(1-methyl-4-(trifluoromethyl)-1H-imidazol-2-yl)benzyl)-7,8-dihydropteridin-6(5H)-one]

Reference: patent US20240226107A1, “UBIQUITIN-SPECIFIC PROTEASE 1 (USP1) INHIBITOR” (SIMCERE ZAIMING PHARMACEUTICAL CO., LTD., priority 2021, published 2024)
